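Tested at 5 concentrations; 48 h exposure; 96-well plates; endpoints linearly interpolated, else capped at highest concentration. GI50 is the concentration that inhibits growth by half.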 Active and inactive are the calls of the source. No stated cut-off is given here; in the data, active = GI50 up to about 1.1 µM and inactive = higher.
What was measured:
Experiment in all cases: NCI tumour cell line growth inhibition, 48 h
LOX IMVI = tested on: LOX IMVI
PC-3 = tested on: PC-3
MOLT-4 = tested on: MOLT-4
MDA-N = tested on: MDA-N
IGROV-1 = tested on: IGROV-1
RPMI-8226 = tested on: RPMI-8226
NCI-H226 = tested on: NCI-H226
MCF7 = tested on: MCF7
M14 = tested on: M14
SW-620 = tested on: SW-620
KM12 = tested on: KM12
UACC-62 = tested on: UACC-62
NCI/ADR-RES = tested on: NCI/ADR-RES
Malme-3M = tested on: Malme-3M
UO-31 = tested on: UO-31
SN12C = tested on: SN12C
786-0 = tested on: 786-0
SK-MEL-5 = tested on: SK-MEL-5
SNB-19 = tested on: SNB-19
OVCAR-5 = tested on: OVCAR-5

Measured: GI50

O=C1COc2ccc([N+](=O)[O-])cc2C(=O)C1
inactive: LOX IMVI > 10 µM | PC-3 > 10 µM | MOLT-4 > 10 µM | MDA-N > 10 µM | IGROV-1 > 10 µM | RPMI-8226 > 10 µM | NCI-H226 > 10 µM | MCF7 > 10 µM | M14 > 10 µM | SW-620 > 10 µM | KM12 > 10 µM | UACC-62 > 10 µM | NCI/ADR-RES > 10 µM | Malme-3M > 10 µM | UO-31 > 10 µM | SN12C > 10 µM | 786-0 > 10 µM | SK-MEL-5 > 10 µM | SNB-19 > 10 µM | OVCAR-5 > 10 µM

CS(=O)(=O)Nc1ccc(NCc2c[nH]c3ccc4ncccc4c23)cc1
inactive: LOX IMVI 26.4 µM | PC-3 19 µM | MOLT-4 13.6 µM | MDA-N 18 µM | IGROV-1 48.6 µM | RPMI-8226 11 µM | NCI-H226 26.2 µM | MCF7 23.1 µM | M14 20.9 µM | SW-620 32.3 µM | KM12 17.5 µM | UACC-62 15 µM | NCI/ADR-RES > 100 µM | Malme-3M 23.7 µM | UO-31 33.3 µM | SN12C 25.8 µM | 786-0 29.9 µM | SK-MEL-5 14.9 µM | SNB-19 49.1 µM | OVCAR-5 40.3 µM

CC(=O)c1ccc(/N=N/c2ccc3nonc3c2N)cc1
inactive: LOX IMVI > 100 µM | PC-3 > 100 µM | MOLT-4 > 100 µM | MDA-N > 100 µM | IGROV-1 > 100 µM | RPMI-8226 > 100 µM | NCI-H226 > 100 µM | MCF7 > 100 µM | M14 52.8 µM | SW-620 > 100 µM | KM12 > 100 µM | UACC-62 > 100 µM | NCI/ADR-RES > 100 µM | Malme-3M > 100 µM | UO-31 > 100 µM | SN12C > 100 µM | 786-0 > 100 µM | SK-MEL-5 > 100 µM | SNB-19 > 100 µM | OVCAR-5 > 100 µM

N#C[BH2-][n+]1ccc(C(=O)NNCc2ccc(F)cc2)cc1
inactive: LOX IMVI > 100 µM | PC-3 > 100 µM | MOLT-4 > 100 µM | MDA-N > 100 µM | IGROV-1 > 100 µM | RPMI-8226 > 100 µM | NCI-H226 > 100 µM | MCF7 > 100 µM | M14 > 100 µM | SW-620 > 100 µM | KM12 > 100 µM | UACC-62 > 100 µM | NCI/ADR-RES > 100 µM | Malme-3M > 100 µM | UO-31 59.7 µM | SN12C > 100 µM | 786-0 > 100 µM | SK-MEL-5 > 100 µM | SNB-19 > 100 µM | OVCAR-5 > 100 µM

COc1cccc2cc(C(=O)O)c(=O)oc12
inactive: LOX IMVI > 100 µM | PC-3 > 100 µM | MOLT-4 > 100 µM | MDA-N > 100 µM | IGROV-1 > 100 µM | RPMI-8226 > 100 µM | NCI-H226 > 100 µM | MCF7 > 100 µM | M14 > 100 µM | SW-620 > 100 µM | KM12 > 100 µM | UACC-62 63.7 µM | NCI/ADR-RES > 100 µM | Malme-3M > 100 µM | UO-31 > 100 µM | SN12C > 100 µM | 786-0 > 100 µM | SK-MEL-5 > 100 µM | SNB-19 > 100 µM | OVCAR-5 > 100 µM

From ChEMBL document CHEMBL1201862, “PubChem BioAssay data set” (2004)
